Data from PubChem BioAssay (NCI).
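The compound was tested at five concentrations on cells cultured in 96-well plates, with a 48-hour exposure period. Abbreviation: GI50, concentration required for 50% inhibition of growth. The concentration for full growth arrest is given as TGI.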

What follows are compounds tested on SK-MEL-2 melanoma (assay: DTP human tumour cell line panel, 48 h).

Row | Compound | TGI | GI50
1 | CC(C)C1=CC23CCC4C(C)(C(=O)O)CCCC4(C)C2CC1C1C(=O)N(c2ccc(C(=O)O)cc2)C(=O)C13 (configuration not stated) | > 100 µM | –
2 | COc1cccc(NC(=O)C(C#N)=C(SC)SC)c1 | > 100 µM | –
3 | COc1ccc2cc(-c3c(-c4ccncc4)nc(-c4ccc(S(C)=O)cc4)n3C)ccc2c1 (configuration not stated) | > 25 µM | > 25 µM

Each compound was assayed on SK-MEL-28 melanoma (assay: DTP human tumour cell line panel, 48 h).

Row | Compound | TGI | GI50
4 | Cc1csc2nc(-c3ccc(Cl)c([N+](=O)[O-])c3)c(/C=N/N=C(N)N)n12 | 3.45 µM | –
5 | CN(CCCNC(=O)c1nn(-c2ccc(Cl)cc2Cl)c2c1Cc1ccccc1-2)CCCNC(=O)c1nn(-c2ccc(Cl)cc2Cl)c2c1Cc1ccccc1-2 | 3.3 µM | –
6 | Fc1ccccc1C1SCc2nc3cc4ccccc4cc3n21 (configuration not stated) | > 100 µM | –
7 | CC(C)C1=CC23CCC4C(C)(C(=O)O)CCCC4(C)C2CC1C1C(=O)N(c2ccc(C(=O)O)cc2)C(=O)C13 (configuration not stated) | > 100 µM | –
8 | COc1cccc(NC(=O)C(C#N)=C(SC)SC)c1 | > 100 µM | –
9 | COc1ccc2cc(-c3c(-c4ccncc4)nc(-c4ccc(S(C)=O)cc4)n3C)ccc2c1 (configuration not stated) | > 25 µM | 24.2 µM

These compounds were tested on SK-MEL-5 melanoma (assay: DTP human tumour cell line panel, 48 h).

Row | Compound | TGI | GI50
10 | Cc1csc2nc(-c3ccc(Cl)c([N+](=O)[O-])c3)c(/C=N/N=C(N)N)n12 | 2.94 µM | –
11 | CN(CCCNC(=O)c1nn(-c2ccc(Cl)cc2Cl)c2c1Cc1ccccc1-2)CCCNC(=O)c1nn(-c2ccc(Cl)cc2Cl)c2c1Cc1ccccc1-2 | 3.05 µM | –
12 | Fc1ccccc1C1SCc2nc3cc4ccccc4cc3n21 (configuration not stated) | > 100 µM | –
13 | CC(C)C1=CC23CCC4C(C)(C(=O)O)CCCC4(C)C2CC1C1C(=O)N(c2ccc(C(=O)O)cc2)C(=O)C13 (configuration not stated) | > 100 µM | –
14 | COc1cccc(NC(=O)C(C#N)=C(SC)SC)c1 | > 100 µM | –
15 | COc1ccc2cc(-c3c(-c4ccncc4)nc(-c4ccc(S(C)=O)cc4)n3C)ccc2c1 (configuration not stated) | > 21.2 µM | 5.58 µM

Each compound was assayed on SK-OV-3 ovarian (assay: DTP human tumour cell line panel, 48 h).

Row | Compound | TGI | GI50
16 | Cc1csc2nc(-c3ccc(Cl)c([N+](=O)[O-])c3)c(/C=N/N=C(N)N)n12 | 3.24 µM | –
17 | CN(CCCNC(=O)c1nn(-c2ccc(Cl)cc2Cl)c2c1Cc1ccccc1-2)CCCNC(=O)c1nn(-c2ccc(Cl)cc2Cl)c2c1Cc1ccccc1-2 | 3.06 µM | –
18 | Fc1ccccc1C1SCc2nc3cc4ccccc4cc3n21 (configuration not stated) | > 100 µM | –
19 | CC(C)C1=CC23CCC4C(C)(C(=O)O)CCCC4(C)C2CC1C1C(=O)N(c2ccc(C(=O)O)cc2)C(=O)C13 (configuration not stated) | > 100 µM | –
20 | COc1cccc(NC(=O)C(C#N)=C(SC)SC)c1 | > 100 µM | –
21 | COc1ccc2cc(-c3c(-c4ccncc4)nc(-c4ccc(S(C)=O)cc4)n3C)ccc2c1 (configuration not stated) | > 25 µM | 10.7 µM

These compounds were tested on SN12C renal (assay: DTP human tumour cell line panel, 48 h).

Row | Compound | TGI | GI50
22 | Cc1csc2nc(-c3ccc(Cl)c([N+](=O)[O-])c3)c(/C=N/N=C(N)N)n12 | 3.68 µM | –
23 | CN(CCCNC(=O)c1nn(-c2ccc(Cl)cc2Cl)c2c1Cc1ccccc1-2)CCCNC(=O)c1nn(-c2ccc(Cl)cc2Cl)c2c1Cc1ccccc1-2 | 3.04 µM | –
24 | Fc1ccccc1C1SCc2nc3cc4ccccc4cc3n21 (configuration not stated) | > 100 µM | –
25 | CC(C)C1=CC23CCC4C(C)(C(=O)O)CCCC4(C)C2CC1C1C(=O)N(c2ccc(C(=O)O)cc2)C(=O)C13 (configuration not stated) | > 100 µM | –
26 | COc1cccc(NC(=O)C(C#N)=C(SC)SC)c1 | > 100 µM | –
27 | COc1ccc2cc(-c3c(-c4ccncc4)nc(-c4ccc(S(C)=O)cc4)n3C)ccc2c1 (configuration not stated) | > 25 µM | 18 µM

What follows are compounds tested on SNB-19 CNS (assay: DTP human tumour cell line panel, 48 h).

Row | Compound | TGI | GI50
28 | CN(CCCNC(=O)c1nn(-c2ccc(Cl)cc2Cl)c2c1Cc1ccccc1-2)CCCNC(=O)c1nn(-c2ccc(Cl)cc2Cl)c2c1Cc1ccccc1-2 | 3.24 µM | –
29 | Fc1ccccc1C1SCc2nc3cc4ccccc4cc3n21 (configuration not stated) | > 100 µM | –
30 | CC(C)C1=CC23CCC4C(C)(C(=O)O)CCCC4(C)C2CC1C1C(=O)N(c2ccc(C(=O)O)cc2)C(=O)C13 (configuration not stated) | > 100 µM | –
31 | COc1cccc(NC(=O)C(C#N)=C(SC)SC)c1 | > 100 µM | –
32 | COc1ccc2cc(-c3c(-c4ccncc4)nc(-c4ccc(S(C)=O)cc4)n3C)ccc2c1 (configuration not stated) | > 25 µM | > 20.8 µM

What follows are compounds tested on SNB-75 CNS (assay: DTP human tumour cell line panel, 48 h).

Row | Compound | TGI | GI50
33 | Cc1csc2nc(-c3ccc(Cl)c([N+](=O)[O-])c3)c(/C=N/N=C(N)N)n12 | 3.37 µM | –
34 | CN(CCCNC(=O)c1nn(-c2ccc(Cl)cc2Cl)c2c1Cc1ccccc1-2)CCCNC(=O)c1nn(-c2ccc(Cl)cc2Cl)c2c1Cc1ccccc1-2 | 2.92 µM | –
35 | Fc1ccccc1C1SCc2nc3cc4ccccc4cc3n21 (configuration not stated) | > 100 µM | –
36 | CC(C)C1=CC23CCC4C(C)(C(=O)O)CCCC4(C)C2CC1C1C(=O)N(c2ccc(C(=O)O)cc2)C(=O)C13 (configuration not stated) | > 100 µM | –
37 | COc1cccc(NC(=O)C(C#N)=C(SC)SC)c1 | > 100 µM | –
38 | COc1ccc2cc(-c3c(-c4ccncc4)nc(-c4ccc(S(C)=O)cc4)n3C)ccc2c1 (configuration not stated) | > 25 µM | > 12.8 µM

These compounds were tested on SR leukemia (assay: DTP human tumour cell line panel, 48 h).

Row | Compound | GI50 | TGI
39 | COc1ccc2cc(-c3c(-c4ccncc4)nc(-c4ccc(S(C)=O)cc4)n3C)ccc2c1 (configuration not stated) | > 25 µM | > 25 µM

Each compound was assayed on SW-620 colon (assay: DTP human tumour cell line panel, 48 h).

Row | Compound | TGI | GI50
40 | Cc1csc2nc(-c3ccc(Cl)c([N+](=O)[O-])c3)c(/C=N/N=C(N)N)n12 | 1.35 µM | –
41 | CN(CCCNC(=O)c1nn(-c2ccc(Cl)cc2Cl)c2c1Cc1ccccc1-2)CCCNC(=O)c1nn(-c2ccc(Cl)cc2Cl)c2c1Cc1ccccc1-2 | 3.06 µM | –
42 | Fc1ccccc1C1SCc2nc3cc4ccccc4cc3n21 (configuration not stated) | > 100 µM | –
43 | CC(C)C1=CC23CCC4C(C)(C(=O)O)CCCC4(C)C2CC1C1C(=O)N(c2ccc(C(=O)O)cc2)C(=O)C13 (configuration not stated) | > 100 µM | –
44 | COc1cccc(NC(=O)C(C#N)=C(SC)SC)c1 | > 100 µM | –
45 | COc1ccc2cc(-c3c(-c4ccncc4)nc(-c4ccc(S(C)=O)cc4)n3C)ccc2c1 (configuration not stated) | > 25 µM | > 25 µM

Each compound was assayed on T-47D breast (assay: DTP human tumour cell line panel, 48 h).

Row | Compound | TGI | GI50
46 | CN(CCCNC(=O)c1nn(-c2ccc(Cl)cc2Cl)c2c1Cc1ccccc1-2)CCCNC(=O)c1nn(-c2ccc(Cl)cc2Cl)c2c1Cc1ccccc1-2 | 3.76 µM | –
47 | Fc1ccccc1C1SCc2nc3cc4ccccc4cc3n21 (configuration not stated) | > 100 µM | –
48 | CC(C)C1=CC23CCC4C(C)(C(=O)O)CCCC4(C)C2CC1C1C(=O)N(c2ccc(C(=O)O)cc2)C(=O)C13 (configuration not stated) | > 100 µM | –
49 | COc1ccc2cc(-c3c(-c4ccncc4)nc(-c4ccc(S(C)=O)cc4)n3C)ccc2c1 (configuration not stated) | 24.6 µM | 7.92 µM

These compounds were tested on TK-10 renal (assay: DTP human tumour cell line panel, 48 h).

Row | Compound | TGI | GI50
50 | CN(CCCNC(=O)c1nn(-c2ccc(Cl)cc2Cl)c2c1Cc1ccccc1-2)CCCNC(=O)c1nn(-c2ccc(Cl)cc2Cl)c2c1Cc1ccccc1-2 | 3.14 µM | –
51 | Fc1ccccc1C1SCc2nc3cc4ccccc4cc3n21 (configuration not stated) | > 100 µM | –
52 | CC(C)C1=CC23CCC4C(C)(C(=O)O)CCCC4(C)C2CC1C1C(=O)N(c2ccc(C(=O)O)cc2)C(=O)C13 (configuration not stated) | > 100 µM | –
53 | COc1cccc(NC(=O)C(C#N)=C(SC)SC)c1 | > 100 µM | –
54 | COc1ccc2cc(-c3c(-c4ccncc4)nc(-c4ccc(S(C)=O)cc4)n3C)ccc2c1 (configuration not stated) | > 25 µM | > 21.8 µM

Each compound was assayed on U251 CNS (assay: DTP human tumour cell line panel, 48 h).

Row | Compound | TGI | GI50
55 | Cc1csc2nc(-c3ccc(Cl)c([N+](=O)[O-])c3)c(/C=N/N=C(N)N)n12 | 2.97 µM | –
56 | CN(CCCNC(=O)c1nn(-c2ccc(Cl)cc2Cl)c2c1Cc1ccccc1-2)CCCNC(=O)c1nn(-c2ccc(Cl)cc2Cl)c2c1Cc1ccccc1-2 | 3.1 µM | –
57 | Fc1ccccc1C1SCc2nc3cc4ccccc4cc3n21 (configuration not stated) | > 100 µM | –
58 | CC(C)C1=CC23CCC4C(C)(C(=O)O)CCCC4(C)C2CC1C1C(=O)N(c2ccc(C(=O)O)cc2)C(=O)C13 (configuration not stated) | > 100 µM | –
59 | COc1cccc(NC(=O)C(C#N)=C(SC)SC)c1 | > 100 µM | –
60 | COc1ccc2cc(-c3c(-c4ccncc4)nc(-c4ccc(S(C)=O)cc4)n3C)ccc2c1 (configuration not stated) | > 25 µM | > 25 µM

The compounds below were run on UACC-257 melanoma (assay: DTP human tumour cell line panel, 48 h).

Row | Compound | TGI | GI50
61 | Cc1csc2nc(-c3ccc(Cl)c([N+](=O)[O-])c3)c(/C=N/N=C(N)N)n12 | 1.82 µM | –
62 | CN(CCCNC(=O)c1nn(-c2ccc(Cl)cc2Cl)c2c1Cc1ccccc1-2)CCCNC(=O)c1nn(-c2ccc(Cl)cc2Cl)c2c1Cc1ccccc1-2 | 3.35 µM | –
63 | Fc1ccccc1C1SCc2nc3cc4ccccc4cc3n21 (configuration not stated) | > 100 µM | –
64 | CC(C)C1=CC23CCC4C(C)(C(=O)O)CCCC4(C)C2CC1C1C(=O)N(c2ccc(C(=O)O)cc2)C(=O)C13 (configuration not stated) | > 100 µM | –
65 | COc1cccc(NC(=O)C(C#N)=C(SC)SC)c1 | > 100 µM | –
66 | COc1ccc2cc(-c3c(-c4ccncc4)nc(-c4ccc(S(C)=O)cc4)n3C)ccc2c1 (configuration not stated) | > 25 µM | > 25 µM

Each compound was assayed on UACC-62 melanoma (assay: DTP human tumour cell line panel, 48 h).

Row | Compound | TGI | GI50
67 | Cc1csc2nc(-c3ccc(Cl)c([N+](=O)[O-])c3)c(/C=N/N=C(N)N)n12 | 3.3 µM | –
68 | CN(CCCNC(=O)c1nn(-c2ccc(Cl)cc2Cl)c2c1Cc1ccccc1-2)CCCNC(=O)c1nn(-c2ccc(Cl)cc2Cl)c2c1Cc1ccccc1-2 | 2.92 µM | –
69 | Fc1ccccc1C1SCc2nc3cc4ccccc4cc3n21 (configuration not stated) | > 100 µM | –
70 | CC(C)C1=CC23CCC4C(C)(C(=O)O)CCCC4(C)C2CC1C1C(=O)N(c2ccc(C(=O)O)cc2)C(=O)C13 (configuration not stated) | > 100 µM | –
71 | COc1cccc(NC(=O)C(C#N)=C(SC)SC)c1 | > 100 µM | –
72 | COc1ccc2cc(-c3c(-c4ccncc4)nc(-c4ccc(S(C)=O)cc4)n3C)ccc2c1 (configuration not stated) | > 25 µM | 21 µM

These compounds were tested on UO-31 renal (assay: DTP human tumour cell line panel, 48 h).

Row | Compound | TGI | GI50
73 | Cc1csc2nc(-c3ccc(Cl)c([N+](=O)[O-])c3)c(/C=N/N=C(N)N)n12 | 2.33 µM | –
74 | CN(CCCNC(=O)c1nn(-c2ccc(Cl)cc2Cl)c2c1Cc1ccccc1-2)CCCNC(=O)c1nn(-c2ccc(Cl)cc2Cl)c2c1Cc1ccccc1-2 | 3.59 µM | –
75 | Fc1ccccc1C1SCc2nc3cc4ccccc4cc3n21 (configuration not stated) | > 100 µM | –
76 | CC(C)C1=CC23CCC4C(C)(C(=O)O)CCCC4(C)C2CC1C1C(=O)N(c2ccc(C(=O)O)cc2)C(=O)C13 (configuration not stated) | > 100 µM | –
77 | COc1ccc2cc(-c3c(-c4ccncc4)nc(-c4ccc(S(C)=O)cc4)n3C)ccc2c1 (configuration not stated) | > 25 µM | 6.42 µM
